Test results taken from publication PMC9189845, “Structure–Activity Relationships of 8-Hydroxyquinoline-Derived Mannich Bases with Tertiary Amines Targeting Multidrug-Resistant Cancer” (Journal of Medicinal Chemistry, 2022).
Like-named read-outs stand apart in the source and are kept apart here.

Legend:
MES-SA cells = assay: PrestoBlue viability assay, MES-SA cells; details: for pIC50 value MES-SA: MES-SA cells, without TQ
MES-SA/Dx5 cells = assay: PrestoBlue viability assay, MES-SA/Dx5 cells (MDR, P-gp positive); details: for SR: selectivity ratio MES-SA vs MES-SA/Dx5, without TQ; for pIC50 value MES-SA/Dx5: MES-SA/Dx5 cells, without TQ; for SR_TQ: selectivity ratio MES-SA vs MES-SA/Dx5, with TQ
[1] = Homo sapiens, MES-SA, 72 h, read-out: IC50 / μM MES-SA, absence of TQ, 72 h incubation
[2] = Homo sapiens, MES-SA, read-out: pIC50 value MES-SA, MES-SA cells, without TQ (converted)
[3] = Homo sapiens, MES-SA/Dx5, 72 h, read-out: IC50 / μM MES-SA/Dx5, absence of TQ, 72 h incubation
[4] = Homo sapiens, MES-SA/Dx5, read-out: pIC50 value MES-SA/Dx5, MES-SA/Dx5 cells, without TQ (converted)
[5] = read-out: IC50 / μM MES-SA, absence of TQ, 72 h incubation
[6] = read-out: IC50 / μM MES-SA/Dx5, absence of TQ, 72 h incubation
[7] = Homo sapiens, MES-SA, read-out: pIC50 value MES-SA+TQ, MES-SA cells, with TQ (converted)
[8] = Homo sapiens, MES-SA/Dx5, read-out: pIC50 value MES-SA/Dx5 + TQ, MES-SA/Dx5 cells, with TQ (converted)

Compound | IC50 (MES-SA cells; [1]) [µM] | IC50 (MES-SA cells; [2]) [µM] | IC50 (MES-SA/Dx5 cells; [3]) [µM] | IC50 (MES-SA/Dx5 cells; [4]) [µM] | SR (MES-SA/Dx5 cells) | pIC50 value MES-SA (MES-SA cells) | IC50 (MES-SA cells; [5]) [µM] | pIC50 value MES-SA/Dx5 (MES-SA/Dx5 cells) | IC50 (MES-SA/Dx5 cells; [6]) [µM] | SR_TQ (MES-SA/Dx5 cells) | IC50 (MES-SA cells; [7]) [µM] | IC50 (MES-SA/Dx5 cells; [8]) [µM] | IC50 (MES-SA cells; Homo sapiens, MES-SA, read-out: IC50 / μM MES-SA (values in parentheses), presence of 1 μM P-gp inhibitor tariquidar (TQ)) [µM] | IC50 (MES-SA/Dx5 cells; Homo sapiens, MES-SA/Dx5, read-out: IC50 / μM MES-SA/Dx5 (values in parentheses), presence of 1 μM P-gp inhibitor tariquidar (TQ)) [µM] | SR (MES-SA_TQ / Dx5_TQ) (values in parentheses) (MES-SA/Dx5 cells; fraction of IC50 in P-gp negative vs positive cells, presence of 1 μM TQ)
CCN1CCN(C(c2cccnc2)c2cc(Cl)c3cccnc3c2O)CC1 (stereo not drawn) [Compound 118] | 21.4 ± 0.84 | 21.4 | 23.1 ± 4.67 | 22.4 | 0.92 | – | – | – | – | – | – | – | – | – | –
Oc1c(C(c2cccnc2)N2CCOCC2)cc(Cl)c2cccnc12 (stereo not drawn) [Compound 109] | 51 ± 2.48 | 51.3 | 32.9 ± 7.06 | 32.4 | 1.55 | – | – | – | – | – | – | – | – | – | –
Cc1ccc(O)c(C(=O)N2CCOCC2)c1 [Compound 68] | > 100 | 380 | > 100 | – | – | – | – | – | – | – | – | – | – | – | –
Oc1c(C(c2ccc(F)cc2)N2CCOCC2)ccc2cccnc12 (stereo not drawn) [Compound 106] | – | – | – | – | 2.24 | 4.51 | 33.4 ± 13.2 | 4.86 | 14.9 ± 6.17 | 1.15 | – | – | – | – | –
OCCN1CCN(C(c2ccc(F)cc2)c2ccc3cccnc3c2O)CC1 (racemic) [Compound 120] | – | – | – | – | 2.29 | 4.18 | 66.7 ± 4.56 | 4.55 | 29.1 ± 7.12 | 1.55 | – | – | – | – | –
Cc1ccc(C(c2cc(Cl)c3cccnc3c2O)N2CCCC2)cc1 (stereo not drawn) [Compound 91] | 13.2 ± 3.09 | 12.9 | 6.06 ± 2.21 | 5.62 | 2.18 | – | – | – | – | 3.8 | 8.91 | 2.34 | – | – | –
CCN1CCN(C(c2cccs2)c2ccc3cccnc3c2O)CC1 (stereo not drawn) [Compound 116] | 9.06 ± 0.23 | 9.12 | 14.2 ± 1.36 | 14.1 | 0.64 | – | – | – | – | – | – | – | – | – | –
COc1ccc(C(c2ccc3cccnc3c2O)N2CCOCC2)cc1 (stereo not drawn) [Compound 107] | – | – | – | – | 1.29 | 4.69 | 20.3 ± 1.7 | 4.81 | 15.8 ± 2.97 | – | – | – | – | – | –
Oc1ccc(CN2CCCC2)c2cccnc12 [Compound 46] | 7.81 ± 0.5 | 7.76 | 5.31 ± 0.52 | 5.25 | 1.47 | – | – | – | – | – | – | – | – | – | –
Oc1c(C(c2ccncc2)N2CCCC2)ccc2cccnc12 (stereo not drawn) [Compound 86] | 5.99 ± 0.88 | 5.89 | 3.66 ± 0.45 | 3.63 | 1.64 | – | – | – | – | – | – | – | – | – | –
Oc1c(CN2CCc3ccccc3C2)cc(Cl)c2cccnc12 [Compound 80] | 1.96 ± 0.22 | 1.95 | 0.27 ± 0.06 | 0.263 | 7.21 | – | – | – | – | 1.72 | 1.78 | – | 1.81 | 1.05 | 1.72
CCN1CCN(C(c2cccnc2)c2ccc3cccnc3c2O)CC1 (stereo not drawn) [Compound 115] | 20.6 ± 1.85 | 20.4 | 10.3 ± 3.54 | 9.77 | 1.99 | – | – | – | – | 1.05 | 24 | 22.9 | – | – | –
Oc1ccc2ccccc2c1CN1CCOCC1 [Compound 69] | > 100 | – | > 100 | – | – | – | – | – | – | – | – | – | – | – | –
Oc1c(C(c2ccncc2)N2CCOCC2)ccc2cccnc12 (stereo not drawn) [Compound 104] | 15.2 ± 2.74 | 14.8 | 7.14 ± 1.26 | 7.08 | 2.12 | – | – | – | – | 1.45 | 21.9 | 15.1 | – | – | –
Oc1ccc(CN2CCOCC2)c2cccnc12 [Compound 54] | 6.99 ± 0.31 | 6.92 | 9.58 ± 0.33 | 9.55 | 0.73 | – | – | – | – | – | – | – | – | – | –
CN1CCN(C(c2ccncc2)c2ccc3cccnc3c2O)CC1 (stereo not drawn) [Compound 112] | 22.1 ± 2.7 | 21.9 | 11 ± 2.12 | 10.7 | 2.02 | – | – | – | – | 1.58 | 32.4 | 20.4 | – | – | –
O=C(c1ccccc1O)N1CCOCC1 [Compound 67] | > 100 | – | > 100 | – | – | – | – | – | – | – | – | – | – | – | –
Oc1c(C(c2ccccn2)N2CCN(c3ccccn3)CC2)ccc2cccnc12 (stereo not drawn) [Compound 121] | – | – | – | – | 1.81 | 4.39 | 40.9 ± 2.86 | 4.65 | 22.6 ± 2.85 | – | – | – | – | – | –
Oc1ccc2ccncc2c1CN1CCCC(C(F)(F)F)C1 (stereo not drawn) [Compound 64] | > 100 | – | > 100 | – | – | – | – | – | – | – | – | – | – | – | –
Oc1c(C(c2cccs2)N2CCOCC2)cc(Cl)c2cccnc12 (stereo not drawn) [Compound 110] | 7.97 ± 1.01 | 7.94 | 14 ± 0.42 | 13.8 | 0.57 | – | – | – | – | – | – | – | – | – | –
